Experimental data reported in article PMC8635623, “A click chemistry approach to pleuromutilin derivatives, evaluation of anti-MRSA activity and elucidation of binding mode by surface plasmon resonance and molecular docking” (Journal of Enzyme Inhibition and Medicinal Chemistry, 2021).
In brackets after ≈: the same amount, converted by molar mass.

Experiments:
Assay in all cases: MIC/MBC by broth micro dilution
MRSA ATCC 43300 = type: cell-based, methicillin-resistant S. aureus; conditions: Staphylococcus aureus; for MIC: 37 °C, 24 h, read-out: MIC; for MBC: lowest concentration reducing viable counts by 99.9%
Method: (§1) All the synthesised 1,2,3-triazole linked pleuromutilin analogues were screened for in vitro antibacterial activities against methicillin-resistant S. aureus (ATCC 43300), S. aureus (ATCC 29213), and two clinical strains of S. aureus (AD3 and 144, isolated from Guangdong Province, China). The MICs and MBCs of the synthesised pleuromutilin derivatives along with pleuromutilin and tiamulin used as the reference antibacterial drugs, were determined by the broth micro dilution methods according to the Clinical and Laboratory Standards Institute (CLSI)[18].
(§2) The MIC of these novel pleuromutilin derivatives against methicillin-resistant S. aureus (ATCC 43300), S. aureus (ATCC 29213), S. aureus (AD3) and S. aureus (144) were determined by using pleuromutilin and tiamulin as positive control. MIC values were determined by the broth micro dilution methods in accordance with the Clinical and Laboratory Standards Institute (2012). Stock solutions of these compounds were dissolved in methanol to make a stock solution with a concentration of 1280 µg/mL. The working solutions (640 µg/mL) were obtained by diluting stock solutions in sterile Mueller-Hinton (MH) broth. The bacterial solution and solutions of these compounds with a final concentration of 0.016–32 µg/mL were distributed into 96-well plates, with a total volume of 200 µL. Three parallel experiments for each compound concentration. The plates were incubated at 37 °C for 24 h.
(§3) MBC values were determined according to CLSI (2003) and previously report with slightly modification[18]^,[28]^,[31]. After obtaining the MIC results, the 96-well plates were incubated at 37 °C for 24 h. 100 µL of the bacterial solution from the wells with no visible growth was inoculated on MH agar plates. The MH agar plates were incubated at 37 °C for colony count. The MBC was determined as the lowest concentration of compound, which reduces the viable counts for 99.9%.

S. aureus 144 = type: cell-based; conditions: Staphylococcus aureus, S. aureus 144 (clinical strain); for MIC: 37 °C, 24 h; for MBC: lowest concentration reducing viable counts by 99.9%
Method: as §1, §2, §3

S. aureus AD3 = type: cell-based; conditions: Staphylococcus aureus, S. aureus AD3 (clinical strain); for MIC: 37 °C, 24 h; for MBC: lowest concentration reducing viable counts by 99.9%
Method: as §1, §2, §3

S. aureus ATCC 29213 = type: cell-based; conditions: Staphylococcus aureus; for MIC: ATCC29213, 37 °C, 24 h; for MBC: ATCC29213, lowest concentration reducing viable counts by 99.9%
Method: as §1, §2, §3

Compound | MIC (MRSA ATCC 43300) [µg/mL] | MBC (MRSA ATCC 43300) [µg/mL] | MIC (S. aureus 144) [µg/mL] | MBC (S. aureus 144) [µg/mL] | MIC (S. aureus AD3) [µg/mL] | MBC (S. aureus AD3) [µg/mL] | MIC (S. aureus ATCC 29213) [µg/mL] | MBC (S. aureus ATCC 29213) [µg/mL]
C=C[C@]1(C)C[C@@H](OC(=O)Cn2cc(CN3CCN(C)CC3)nn2)[C@]2(C)[C@H](C)CC[C@]3(CCC(=O)[C@H]32)[C@@H](C)[C@@H]1O [Compound 48, 22-(2-(4-(4-Methyl-piperazin-1-yl)-methyl)-1H-1,2,3-triazol-1-yl)-22-deoxy pleuromutilin] | 8 (≈ 14.8 µM) | 16 (≈ 29.5 µM) | 32 (≈ 59.1 µM) | 32 (≈ 59.1 µM) | 16 (≈ 29.5 µM) | 32 (≈ 59.1 µM) | 16 (≈ 29.5 µM) | 32 (≈ 59.1 µM)
C=C[C@]1(C)C[C@@H](OC(=O)Cn2cc(CN3CCN(c4ccccc4)CC3)nn2)[C@]2(C)[C@H](C)CC[C@]3(CCC(=O)[C@H]32)[C@@H](C)[C@@H]1O [Compound 49, 22-(2-(4-(4-Phenyl-piperazin-1-yl)-methyl)-1H-1,2,3-triazol-1-yl)-22-deoxy pleuromutilin] | 4 (≈ 6.62 µM) | 4 (≈ 6.62 µM) | 8 (≈ 13.2 µM) | 16 (≈ 26.5 µM) | 8 (≈ 13.2 µM) | 16 (≈ 26.5 µM) | 8 (≈ 13.2 µM) | 8 (≈ 13.2 µM)
C=C[C@]1(C)C[C@@H](OC(=O)Cn2cc(CN3CCN(c4ccc(C)cc4)CC3)nn2)[C@]2(C)[C@H](C)CC[C@]3(CCC(=O)[C@H]32)[C@@H](C)[C@@H]1O [Compound 52, 22-(2-(4-(4-(p-Tolyl)-piperazin-1-yl)-methyl)-1H-1,2,3-triazol-1-yl)-22-deoxy pleuromutilin] | 4 (≈ 6.47 µM) | 8 (≈ 12.9 µM) | 8 (≈ 12.9 µM) | 16 (≈ 25.9 µM) | 8 (≈ 12.9 µM) | 32 (≈ 51.8 µM) | 8 (≈ 12.9 µM) | 8 (≈ 12.9 µM)
C=C[C@]1(C)C[C@@H](OC(=O)Cn2cc(CN3CCN(c4cccc(F)c4)CC3)nn2)[C@]2(C)[C@H](C)CC[C@]3(CCC(=O)[C@H]32)[C@@H](C)[C@@H]1O [Compound 54, 22-(2-(4-(4-(3-Fluorophenyl)-piperazin-1-yl)-methyl)-1H-1,2,3-triazol-1-yl)-22-deoxy pleuromutilin] | 4 (≈ 6.43 µM) | 4 (≈ 6.43 µM) | 8 (≈ 12.9 µM) | 16 (≈ 25.7 µM) | 8 (≈ 12.9 µM) | 16 (≈ 25.7 µM) | 8 (≈ 12.9 µM) | 8 (≈ 12.9 µM)
C=C[C@]1(C)C[C@@H](OC(=O)Cn2cc(CN3CCN(c4ccc(F)cc4)CC3)nn2)[C@]2(C)[C@H](C)CC[C@]3(CCC(=O)[C@H]32)[C@@H](C)[C@@H]1O [Compound 55, 22-(2-(4-(4-(4-Fluorophenyl)-piperazin-1-yl)-methyl)-1H-1,2,3-triazol-1-yl)-22-deoxy pleuromutilin] | 4 (≈ 6.43 µM) | 4 (≈ 6.43 µM) | 8 (≈ 12.9 µM) | 32 (≈ 51.5 µM) | 8 (≈ 12.9 µM) | 16 (≈ 25.7 µM) | 8 (≈ 12.9 µM) | 8 (≈ 12.9 µM)
C=C[C@]1(C)C[C@@H](OC(=O)Cn2cc(CN3CCN(c4ccccc4Cl)CC3)nn2)[C@]2(C)[C@H](C)CC[C@]3(CCC(=O)[C@H]32)[C@@H](C)[C@@H]1O [Compound 56, 22-(2-(4-(4-(2-Chlorophenyl)-piperazin-1-yl)-methyl)-1H-1,2,3-triazol-1-yl)-22-deoxy pleuromutilin] | 4 (≈ 6.27 µM) | 4 (≈ 6.27 µM) | 16 (≈ 25.1 µM) | 32 (≈ 50.1 µM) | 16 (≈ 25.1 µM) | 32 (≈ 50.1 µM) | 8 (≈ 12.5 µM) | 32 (≈ 50.1 µM)
C=C[C@]1(C)C[C@@H](OC(=O)Cn2cc(CN3CCN(c4cccc(Cl)c4)CC3)nn2)[C@]2(C)[C@H](C)CC[C@]3(CCC(=O)[C@H]32)[C@@H](C)[C@@H]1O [Compound 57, 22-(2-(4-(4-(3-Chlorophenyl)-piperazin-1-yl)-methyl)-1H-1,2,3-triazol-1-yl)-22-deoxy pleuromutilin] | 4 (≈ 6.27 µM) | 8 (≈ 12.5 µM) | 8 (≈ 12.5 µM) | 16 (≈ 25.1 µM) | 16 (≈ 25.1 µM) | 32 (≈ 50.1 µM) | 8 (≈ 12.5 µM) | 16 (≈ 25.1 µM)
C=C[C@]1(C)C[C@@H](OC(=O)Cn2cc(CN3CCN(c4ccc(Cl)cc4)CC3)nn2)[C@]2(C)[C@H](C)CC[C@]3(CCC(=O)[C@H]32)[C@@H](C)[C@@H]1O [Compound 58, 22-(2-(4-(4-(4-Chlorophenyl)-piperazin-1-yl)-methyl)-1H-1,2,3-triazol-1-yl)-22-deoxy pleuromutilin] | 4 (≈ 6.27 µM) | 4 (≈ 6.27 µM) | 16 (≈ 25.1 µM) | 32 (≈ 50.1 µM) | 8 (≈ 12.5 µM) | 32 (≈ 50.1 µM) | 8 (≈ 12.5 µM) | 16 (≈ 25.1 µM)
